What was measured:
[1] = Suppression of triplet species (laser flash photolysis); conditions: Stern-Volmer model; 10 μM methylene blue, excitation 660 nm, argon purged; individual actives
Method: (§1) The excited state suppression ability was assessed by measuring the transient absorption of triplet states using flash photolysis and by singlet oxygen emission in the near infrared.
Triplet suppression: The SHB Laser Flash Photolysis system was used (FIG. 14). A laser pulse (10 mJ/pulse, 10-20 ns) impinges on the sample providing electronic excitation. To assess the formation and the lifetime of excited states or other reactive intermediates, the change in absorbance prior to and after electronic excitation of the sample is monitored by an optical beam (LED) as a function of time. It monitors the disappearance of the species in the fundamental state or the appearance of the excited or radical species. The laser beam is positioned at 90° to the monitoring beam. Shutters are used in both the excitation and monitoring beams to protect the sample from photolysis. The detector in this technique consists of a combination of filters and diode detector. The diode response is read on a digital oscilloscope (Tektronix 2230), which data is subsequently transferred to the microcomputer. The entire equipment is controlled by a microcomputer and the time resolution of the instrument is of about 50 ns. A Quantel Nd: YAG laser (2 w, 3 w Rainbow, pulsed at 3 ns, 80.1% power) was used. […] Readings were taken in a 2 mm×10 mm quartz cuvette. […]

[2] = Singlet oxygen suppression (emission at 1270 nm); conditions: Stern-Volmer model; phosphorescence at 1270 nm in ethanol
Method: as §1
Singlet oxygen suppression: The detector (PMT Hamamatsu R5509—model PC176TSCE005) was cooled to −80° C. and set to 1500 V and the signals were acquired using a proprietary software from SHB Analytics GmbH (Germany). Excitation was performed by a Quantel Brilliant laser (2 w-3 w-Rainbow). Emission from the sample is filtered so that irradiation in the range of from […] is detected. A microcomputer is connected to the system and analysis of the transients is carried out using an ultra-fast acquisition plate. It is important to remember that luminescence emission at 1270 nm is characteristic of singlet oxygen, being the safest method of detecting the presence and reactivity of this species. […]
To assess the actives' ability of suppressing singlet oxygen (1O2), the near-infrared emission (1270 nm) was measured, which is characteristic of 1O2 and a golden standard for this detection. […]
The detector (PMT Hamamatsu-model H10330-45) was cooled to −80° C. and set to −800 V and the signals were acquired using a proprietary software from SHB Analytics GmbH (Germany). […] Sample emission is detected in the range of 1270±20 nm. […]

SMILES: CC1=C(/C=C/C(C)=C/C=C/C(C)=C/C=C/C=C(C)/C=C/C=C(C)/C=C/C2=C(C)CCCC2(C)C)C(C)(C)CCC1 [Beta-carotene]
- KSt (triplet suppression constant) [1]: 0.16 ± 0.05 μg^−1μL
- KSV (singlet oxygen suppression constant) [2]: 30.5 × 10^4 mg^−1mLs^−1

— patent US20250082565A1, “ANTIOXIDANT COSMETIC COMPLEX, COSMETIC COMPOSITION, USE AND METHOD FOR COSMETIC TREATMENT” (Natura Cosméticos S.A., priority 2023, published 2025)
